We go through six compounds from patent US9394318B2, “Crystal polymorph of magnesium glycinate dihydrate and process for its preparation” (Cypress Pharmaceutical, Inc., priority 2012, dated 2016).

The conditions of experiment [1]: 4.0 mL PBS + 20 mg binder, mixed 1 h at room temperature; hypothetical results; dihydrate. Here is the method:
Exemplary stock solutions suitable for phosphate-binding assays include the following: phosphate-binding solution (“PBS”) containing 10 mM KH2PO4, 30 mM Na2CO3, 80 mM NaCl, as described in Rosenbaum et al. Nephrol. Dial. Transplant. 12:961-964 (1997); acetate buffer (“AB”) solution containing 0.1N acetic acid, 0.025N sodium acetate, as described in Lowry & Lopez J. Biol. Chem. 162:421-428 (1946); ammonium molybdate (“AM”) solution containing 1% ammonium molybdate in 0.05N H2SO4, as described in Lowry & Lopez; ascorbic acid (“AA”) solution containing 1% ascorbic acid in H2O, as described in Lowry & Lopez.
In general, the phosphate-binding assays are conducted in 12×75 mm glass tubes. 4.0 mL PBS and 20 mg putative phosphate binder are added to a glass tube and then mixed for 1 h at room temperature. 0.1 mL supernatant is pipetted from this tube to a new test tube. 3.0 mL AB, 0.3 mL AA and 0.3 mL AM solutions are added and O.D. is measured at 700 nm after 10 minutes.
The phosphate binding capacity was calculated as follows (mcg stands for micrograms): ((O.D. of sample×95)/O.D. of standard)×40=(mcg)PO4 left in solution ((3800(mcg)PO4 left)×50)/1000=(mcg)PO4 bound per gram of phosphate binder.
The phosphate binding capacities of samples of magnesium glycinate dihydrate produced by the process of Example 1 are measured. X-ray powder diffraction is conducted on each of the samples to verify that they consist of the polymorph described in Example 2.

For experiment [2] the following is noted: as described in the '012 application, cited from earlier work.

Consider `O=C1C[NH][Mg]2([OH])([OH])([NH]CC(=O)[O]2)[O]1` [Sample 1, magnesium glycinate dihydrate], for which the “PO4 binding” value in experiment [1] is listed as 175.0 mg/g. Regarding `O=C1C[NH][Mg]2([OH])([OH])([NH]CC(=O)[O]2)[O]1` [Sample 2, magnesium glycinate dihydrate], the “PO4 binding” value in experiment [1] came to 177.0 mg/g. As to `O=C1C[NH][Mg]2([OH])([OH])([NH]CC(=O)[O]2)[O]1` [Sample 3, magnesium glycinate dihydrate], the “PO4 binding” value in experiment [1] turned out to be 176.2 mg/g. Regarding `O=C1C[NH][Mg]2([OH])([OH])([NH]CC(=O)[O]2)[O]1` [Sample 4, magnesium glycinate dihydrate], the “PO4 binding” value in experiment [1] is 178.1 mg/g. Consider `[Cl-].[Cl-].[Mg+2]` [magnesium chloride], for which, in experiment [2] (formed from magnesium glycinate and stomach acid (HCl)), the “ability to bind phosphate” value was “does not have the ability to bind phosphate in appreciable quantities”. Take “magnesium glycinate [magnesium glycinate salt]”: the “ability to bind phosphate per gram” value in experiment [2] (in vitro phosphate binding assay) was “at least 50 mg phosphate per gram”.
